Data on five compounds can be found in article PMC11997985, “Synthesis and In Vitro Profiling of Psilocin Derivatives: Improved Stability and Synthetic Properties” (Journal of Medicinal Chemistry, 2025).

Series [1] is described as follows: Solubility, screen method, phosphate buffer pH 7.4, 1% DMSO. The series is classed as physicochemical. The following applies: phosphate buffer with 1% DMSO; 100 mM phosphate buffer pH 7.4, 1% DMSO; assay range 0.1 to 100 μM.
The nature of series [2]: Compounds in pre-precipitated (inactivated) plasma. The series is classed as in vitro ADME, human. The following applies: for % found in incubation plasma at time 0.2 min: peak area in incubation plasma versus pre-precipitated plasma; for degradation in inactivated plasma: plasma pretreated with acetonitrile. The protocol:
Materials for experiments described in the supporting information (solubility) […]
Dimethylsulfoxide (DMSO) CHROMASOLV™ Plus, >99.7%
Acetonitrile (MeCN) LiChrosolv, hypergrade for LC-MS, Merck Chemicals
Formic acid (HCOOH) For LC-MS, Carlo-Erba
Water > 18MΩcm quality (Milli-Q, Millipore
Di-sodium-hydrogenphoshate dihydrate Merck
Sodium-dihydrogenphosphate monohydrate Merck
Autosampler Agilent 1260 Multisampler, G7167A
Gradient LC-pump Agilent 1260 Flexible Pump, G7104C
Analytical Flow 0.5 mL/min
Analytical column Luna® Omega 1.6 µm Polar C18 100Å, 50 x 2.1 mm
Injection volume 3.0 µL (15 µL for “high” injection of buffer sample) […]
Mobile phase A H2O/MeCN/Formic acid 95/5/0.1
Mobile phase B H2O/MeCN/Formic acid 5/95/0.1
Materials and analytical parameters for FT-ICR-MALDI-HRMS
The high-resolution mass spectrometry (HR-MS) experiments were performed using a MALDI-Fourier-transform ion cyclotron resonance (FTICR) (7T solariX XR-2ω, Bruker Daltonics) mass spectrometer equipped with a Smartbeam II 2 kHz laser. Briefly, a stock solution (1mg/ml) of the compound 5 was prepared and mixed 1:1 with a matrix solution containing DHB (40 mg/ml) in 50% ACN (0.02% TFA). 1 µl of the mixed solution was spotted onto MPTP MALDI target plate (Bruker Daltonics) and dried at room temperature. The instrument was tuned for optimal detection of small molecules (m/z 86–500) in positive polarity using the quadrature phase detection (QPD) (2ω) mode. The method was calibrated with red phosphorus over the mass range and DHB matrix ion [2M–2H2O+H]+ m/z 273.039364 was used as lock mass. The compound was identified with sub ppm mass accuracy and specific isotopic pattern of boron in its molecular structure.
Incubation samples. 10 mM stock solutions of test compounds in DMSO were used to prepare 100 μM solutions by dilution in EtOH/water 25/75 (v/v). 6 μL of the 100 μM solution was spiked into 594 μL pre-warmed plasma at 37 °C giving a final concentration of 1 μM. The incubation tube was then mixed on a vortex. A sample (60 μL) was taken and added to an Eppendorf tube containing 180 μL acetonitrile. The tube was thoroughly mixed with a vortex. The precipitated sample was then treated with centrifugation (10.000 g, 10 minutes, 18 °C), 150 μL of the supernatant was mixed with 450 μL water directly into a LC-vial (glass). This step was repeated for every time point. The first time point was approximately taken 15-20 seconds after spiking.
Other timepoints were 5,10, 30, 60, 120, 240 minutes. Pre-precipitated samples. 594 μL of pre-warmed plasma was precipitated with 1800 μL ACN. 6 μL of the 100 μM solution was spiked into the precipitated plasma. 1 mL was removed and added to an Eppendorf tube. After a centrifugation step (10.000 g, 10 minutes, 18 °C), 150 μL of the supernatant was mixed with 450 μL water directly into a LC-vial (glass).
Metabolic stability in human microsomes
The assay was run at 37°C with a microsomal protein concentration of 0.5 mg/mL and a compound concentration of 1 μM in a 0.1 M potassium phosphate buffer at pH 7.4. The compounds were added to the microsome suspension whereafter the enzymatic reaction was initiated by the addition of the co-factor NADPH, giving a final NADPH concentration of 1 mM (Table 9). Samples […]
Table S6 Time-dependent decline in concentration of five compounds for in vitro plasma stability in human plasma and […]
Plasma stability. The compounds were incubated separately at a concentration of 1 μM in +37°C pre-warmed pooled human plasma from commercial resources. The incubations were performed over a four-hour period with the first sample taken after addition of the compounds to plasma followed by a thorough mixing, with further sampling at 5, 10, and 30 minutes as well as 1, 2, and 4 hours. The samples were analyzed by LC-MS/MS using relative peak areas for the calculations of the time-dependent […]
Table S7 Comparison of peak area in incubation plasma after addition and mixing with pre-precipitated plasma. […]

Series [3] in a line: Peak area in microsome suspension compared with compounds in solution. The series is classed as in vitro ADME, human. The note with it: peak area 15 seconds after addition of NADPH versus same amount (125 nM) in H2O/EtOH. The protocol:
were taken at three timepoints, and the degradation was compared to determine if it was dependent on NADPH. Compound 4k […]
without the addition of NADPH. […]
microsomes that need to be activated by a co -factor.
Table S5 Percent of peak area found in microsome suspension 15 seconds after the addition of NADPH in comparison with the same amount dissolved in H2O/EtOH
No. Area at 0.25 min. in Area in solution % found in microsomes/NADPH (125 nM) microsome
Comparison with compounds in solution. A comparison was made between the peak area of the compounds in solution with that obtained in the microsome suspension directly after the addition of NADPH (about 0.25 minutes) (Table S5). Before the addition of NADPH, the compounds are equilibrated in the microsome suspension for approximately five minutes. All compounds were prepared in solution by diluting a portion of the DMSO solutions with H2O/EtOH (75:25) to 125 nM (the final concentration of compounds for analysis in the microsome assay).
For the compounds where no results from the microsome assay could be reported due to low peak area (4d, 4e, 4f & 5), less than one percent of the expected peak area as compared with the area in solution was detected. […]
degrade rapidly before the addition of the co-factor after five minutes in incubation. For compounds 4g, 4h, 4i & 4j, which were […]
higher relative peak areas were found. […]
without NADPH was only found at 15% of the area seen in solution in the microsome suspension.

A short description of series [4]: Chemical stability in 1.0 M NaHCO3 and 1.0 M HCl.
Series [5] in a line: Stability in simulated stomach acid (0.10 M HCl). The note with it: 0.10 M HCl (simulated stomach acid).
The subject of another series is porcine liver esterase. Nature of the series: Stability in FaSSIF supplemented with esterase. The note with it: for % prodrug remaining, measured after 1 min: after 1 min at 20 IU/mL; for predicted half-life: at 270 IU/mL; for predicted abs.: calculated remaining prodrug available for GI absorption, predicted level after 5 min at 270 IU/mL (% remaining prodrug); for half-life at 0.292 mM: pig, FaSSIF supplemented with porcine liver esterase (20 IU/mL); for % prodrug remaining, no esterase 30 min: after 30 min with no esterase.

As a reminder, the solubility is how much of the substance goes into solution per volume. One may read the half-life as how long it takes for the measured level to halve. Read a low half-life as fast loss.

`CN(C)CCc1c[nH]c2cccc(OCc3ccccc3)c12` [Compound 3, 4-Benzyloxy-N,N-dimethyltryptamine] returned a solubility in series [1] greater than 90 µM. Moreover, the “% found in incubation plasma at time 0.2 min” value (“% found in incubation plasma” for short) in series [2] was 115%. Further, the “degradation in inactivated plasma” value in series [2] was “fairly stable”. Besides, the “% found in microsome suspension” value in series [3] stood at 88.5%. In addition, the half-life at 5 mM in series [4] (1.0 M HCl), in series [4] (1.0 M NaHCO3) and in series [5] was greater than 167 h in each case.
Regarding `CC(=O)Oc1cccc2[nH]cc(CCN(C)C)c12.O=C(O)/C=C/C(=O)O` [Compound 4a, 4-acetoxy-N,N-dimethyltryptamine], the solubility in series [1] came out at 77 µM. Besides, in series [2], the “% found in incubation plasma” value was 9.8% and the “degradation in inactivated plasma” value is “heavily degraded”. Moreover, the “% found in microsome suspension” value in series [3] is listed as 0.0%. In addition, in the series on porcine liver esterase, the “% prodrug remaining, measured after 1 min” value worked out at 47%; the predicted half-life is 4.2 s; the predicted abs. is recorded as 6.2 × 10^–21; the half-life at 0.292 mM came to 54.6 ± 6 s. In addition, the half-life at 24 h, 5 mM in series [4] (1.0 M HCl) is 5 h. In addition, in series [4] (1.0 M NaHCO3), the half-life at 24 h, 5 mM worked out at 15 h. The half-life at 5 mM in series [5] was greater than 167 h.
`CN(C)CCc1c[nH]c2cccc(OC(=O)C3CC3)c12.O=C(O)/C=C/C(=O)O` [Compound 4g] came in with a solubility in series [1] greater than 90 µM. Moreover, in series [2], the “% found in incubation plasma” value stood at 90% and the “degradation in inactivated plasma” value is reported as “fairly stable”. Further, the “% found in microsome suspension” value in series [3] was 58%. Also, in the series on porcine liver esterase, the “% prodrug remaining, measured after 1 min” value came out at 57%; the “% prodrug remaining, no esterase 30 min” value amounted to 100%; the predicted half-life was 5.4 s; the predicted abs. was 1.9 × 10^–15. In addition, the half-life at 0.292 mM with porcine liver esterase stood at 73.2 ± 2.4 s. Further, the half-life at 24 h, 5 mM in series [4] (1.0 M HCl) was determined as 100 h. This compound came in with a half-life at 24 h, 5 mM in series [4] (1.0 M NaHCO3) of 183 h. In series [5], this compound showed a half-life at 5 mM greater than 167 h.
In series [1], `CCOC(=O)Oc1cccc2[nH]cc(CCN(C)C)c12.O=C(O)/C=C/C(=O)O` [Compound 4i] had a solubility of 88 µM. Further, in series [2], the “% found in incubation plasma” value came to 17% and the “degradation in inactivated plasma” value is “heavily degraded”. For the same compound, in series [3], the “% found in microsome suspension” value worked out at 7.1%. In the series with porcine liver esterase, the “% prodrug remaining, measured after 1 min” value is given as 28%; the “% prodrug remaining, no esterase 30 min” value was 100%; the predicted half-life is 2.4 s; the predicted abs. was 2.6 × 10^–35. This compound also came in with a half-life at 0.292 mM in the series with porcine liver esterase of 33.6 ± 7.2 s. The compound further came in with a half-life at 5 mM in series [4] (1.0 M HCl) greater than 167 h. The compound further displayed a half-life at 24 h, 5 mM in series [4] (1.0 M NaHCO3) of 50 h. The half-life at 5 mM in series [5] is greater than 167 h.
For `CN(C)CCc1c[nH]c2cccc(OP(=O)(O)O)c12` [Compound 8, 4-phosphoryloxy-N,N-dimethyltryptamine, reference compound], in series [2], the “% found in incubation plasma” value came to 67% and the “degradation in inactivated plasma” value is reported as “fairly stable”. In addition, in series [3], the “% found in microsome suspension” value was 81.5%. The half-life at 5 mM in series [4] (1.0 M HCl) is greater than 167 h. For the same compound, the half-life at 24 h, 5 mM in series [4] (1.0 M NaHCO3) was 250 h. The compound further registered a half-life at 5 mM in series [5] greater than 167 h.
